How the values were obtained:
L-M(TK^−) cells [1] = test: Voltage-sensitive FRET fluorescence changes in voltage clamped L-M(TK^−) cells; assay type: cell-based
Description: All cells were grown and handled like L-M(TK^−) except where noted. L-M(TK^−) cells were grown in Dulbecco's Modified Eagle Media (Gibco; Grand Island, N.Y.) with 10% fetal bovine serum (FBS) and 1% penicillin streptomycin (PS) (Gemini; Calabasas, Calif.). B104 cells were differentiated with 1 μM retinoic acid for 5 days prior to use. The cells were plated on glass coverslips at least one day before use. The adherent cells were washed and maintained in 2.5–3.0 mL of HBSS with 1 g/L glucose and 20 mM HEPES at pH 7.4. A freshly prepared 75 μM aqueous solution of the appropriate oxonol was made prior to an experiment from a DMSO stock solution. The cells were stained by mixing 100 μL of the oxonol solution with 750 μL of the bath and then adding the diluted solution to the cells. The dye was left for 30–40 minutes at a bath concentration of […]. 1.5 mM β-cyclodextrin in the bath solution was necessary for cell loading of DiSBA-C6-(3). The butyl and ethyl derivatives were water-soluble enough to load cells with out β-cyclodextrin complexation. DiSBA-C10-(3) was loaded in a pH 7.4 solution containing 290 mM sucrose and 10 mM HEPES, 364 mOsm, for 10 min at a bath concentration of […]. DiSBA-C10-(3) labeling was quenched by replacing the bath with HBSS solution. The cells were stained with 15 µg/mL of FL-WGA for 15 minutes. The B104 cells required a 125 µg/mL bath concentration to give satisfactory lectin staining. […] If the excess ethyl or butyl oxonol derivatives were left in the bath, slow currents and fluorescence changes due to redistribution of the dyes into the cell were observed during depolarizations greater than 1 s. […]
(§1) The fluorescently labeled cells were excited with light from a 75 W xenon lamp passed through 450–490 nm excitation interference filters. […] The long wavelength Texas Red fluorescence was passed through a 605 nm DF55 bandpass filter. Voltage dependent fluorescence changes in single cells were measured using a Nikon microscope attached to a Photoscan II photometer equipped with two R928 PMTs for dual emission recordings. […]

astrocytoma cells = test: Pentamethine oxonol translocation, displacement currents in voltage-clamped astrocytoma cells; assay type: cell-based; details: for displacement current time constant: voltage steps of +20–120 mV; for translocation time constant (crosses the membrane): pentamethine oxonols, DiSBA-C6-(5) value at 20
From the text: The membrane translocation rates for the pentamethines are 5–8 times faster than the trimethine analogues. […] The trimethine analogue translocates […] under identical conditions. The displacement currents of DiSBAC6(5) decay very rapidly and are difficult to separate from the cell capacitance. As a result of the large voltage-dependent signal from the Cou-PE/DiSBAC6(5) pair, it was possible to optically measure the speed of voltage response of DiSBAC6(5). The time constant for DiSBAC6(5) translocation was measured optically at 0.383±0.032 ms in response to a 100 mV depolarization step, using FRET from asymmetrically labeled Cou-PE. The enhanced translocation rates result from the greater charge delocalization and slightly more hydrophobicity of the pentamethine oxonols. The rapid voltage response of DiSBAC6(5) is the fastest known for a permeant, highly fluorescent molecule. The submillisecond response is fast enough to accurately register action potentials of single neurons.

[2] = system: targeted GFP expressing cells; test: Temporal response of the GFP/oxonol FRET change; assay type: cell-based; details: oxonol acceptors; identical to displacement current time constants
From the text: The temporal response of the GFP/oxonol FRET change is dependent on the oxonol translocation rate and follows the previously observed trend with oxonol acceptors, faster responses with more hydrophobic acceptors. The measured time constants for the ethyl and butyl oxonol acceptors are ˜50 and ˜5 ms respectively in the targeted GFP expressing cells. The FRET response and the electrophysiologically measured displacement currents have identical time constants. The measured response times are 2–4 fold faster than previously reported and may be a property of the cells used or from a slight difference in temperature.

L-M(TK^−) cells [3] = test: Oxonol displacement currents (membrane translocation), whole-cell voltage clamp; assay type: cell-based; details: for translocation time constant: voltage clamped mammalian cells
Description: All cells were grown and handled like L-M(TK^−) except where noted. L-M(TK^−) cells were grown in Dulbecco's Modified Eagle Media (Gibco; Grand Island, N.Y.) with 10% fetal bovine serum (FBS) and 1% penicillin streptomycin (PS) (Gemini; Calabasas, Calif.). B104 cells were differentiated with 1 μM retinoic acid for 5 days prior to use. The cells were plated on glass coverslips at least one day before use. The adherent cells were washed and maintained in 2.5–3.0 mL of HBSS with 1 g/L glucose and 20 mM HEPES at pH 7.4. A freshly prepared 75 μM aqueous solution of the appropriate oxonol was made prior to an experiment from a DMSO stock solution. The cells were stained by mixing 100 μL of the oxonol solution with 750 μL of the bath and then adding the diluted solution to the cells. The dye was left for 30–40 minutes at a bath concentration of […]. 1.5 mM β-cyclodextrin in the bath solution was necessary for cell loading of DiSBA-C6-(3). The butyl and ethyl derivatives were water-soluble enough to load cells with out β-cyclodextrin complexation. DiSBA-C10-(3) was loaded in a pH 7.4 solution containing 290 mM sucrose and 10 mM HEPES, 364 mOsm, for 10 min at a bath concentration of […]. DiSBA-C10-(3) labeling was quenched by replacing the bath with HBSS solution. The cells were stained with 15 µg/mL of FL-WGA for 15 minutes. The B104 cells required a 125 µg/mL bath concentration to give satisfactory lectin staining. The excess dyes were removed with repeated washes with HBSS. If the excess ethyl or butyl oxonol derivatives were left in the bath, slow currents and fluorescence changes due to redistribution of the dyes into the cell were observed during depolarizations greater than 1 s. The cardiac myocytes [Henderson, S. A., Spencer, M., Sen, A., Kumar, C., Siddiqui, M. A. Q., and Chien, K. R. 1989. Structure organization, and expression of the rat cardiac myosin light chain-2 gene. J. Biol. Chem. 264:18142–18146] were a gift of Professor Kenneth Chien, UCSD. The Jurkat lymphocyte suspensions were grown in RPMI media with 5% heat inactivated FBS and 1% PS. 15–20 mL aliquots of the cellular suspension were washed three times before and after dye staining by centrifugation at 100×g for 4 minutes followed by additions of fresh HBSS.
Patch clamp recording were made using an Axopatch 1-D amplifier equipped with a CV-4 headstage from Axon Instruments (Foster City, Calif.). The data were digitized and stored using the PCLAMP software. The pH 7.4 intracellular solution used contained 125 mM potassium gluconate, 1 mM CaCl2.2H2O, 2 mM MgCl2.6H2O, 11 mM EGTA, and 10 mM HEPES. For the B104 cells, 4 mM ATP and 0.5 mM GTP were added.
The translocation rates were studied in L-M(TK^−) cells using whole-cell voltage clamp recording. The L-M(TK^−) cells were chosen because they have very low background currents and are easy to patch clamp. These cells have a resting potential of −5 mV and no evident voltage activated currents.
12.5 ms long voltage steps at 15 mV increments were applied to the cell, from a holding potential of −70 mV. The larger, faster transients due to simple membrane capacitance transient could be minimized using the capacitance and series resistance compensation capabilities of the Axopatch amplifier, allowing the displacement currents to be clearly observed. The currents are due to redistribution of the membrane-bound oxonol in response to 8 depolarizations. The time constant for the displacement current is 2 ms for 120 mV depolarization. Equal amounts of charge move at the onset and conclusion of the voltage step, but in opposite directions, consistent with redistribution of stored ions from one energy minimum to the other across the plasma membrane. Furthermore, the induced capacitance dq/dV from the oxonol movement is calculated to be ˜5 pF for 100 mV depolarization. This value corresponds to roughly one third the membrane capacitance without the dye. […] The optimum density of sodium channels in an unmyelinated nerve. Philos. Trans. R. Soc. […]

Jurkat cell suspensions = test: Quenching of FL-WGA fluorescence by oxonol titration in cell suspensions; assay type: cell-based; details: cells labeled with FL-WGA
Description: (§2) All cells were grown and handled like L-M(TK^−) except where noted. L-M(TK^−) cells were grown in Dulbecco's Modified Eagle Media (Gibco; Grand Island, N.Y.) with 10% fetal bovine serum (FBS) and 1% penicillin streptomycin (PS) (Gemini; Calabasas, Calif.). B104 cells were differentiated with 1 μM retinoic acid for 5 days prior to use. The cells were plated on glass coverslips at least one day before use. The adherent cells were washed and maintained in 2.5–3.0 mL of HBSS with 1 g/L glucose and 20 mM HEPES at pH 7.4. A freshly prepared 75 μM aqueous solution of the appropriate oxonol was made prior to an experiment from a DMSO stock solution. […] If the excess ethyl or butyl oxonol derivatives were left in the bath, slow currents and fluorescence changes due to redistribution of the dyes into the cell were observed during depolarizations greater than 1 s. […]
To transduce charge displacements into optical signals, the oxonol fluorescences at the intracellular and extracellular membrane binding sites is made different. Fluorescence asymmetry is created with the introduction of fluorescently labeled lectins bound to the extracellular membrane surface. […] The extinction coefficient and the fluorescence quantum yield of FL-WGA were measured to be 222,000 M^−1cm^−1 (˜3 fluorescein/protein) and 0.23, respectively. […]

B104 neuroblastoma cells = test: Voltage-sensitive FRET in differentiated B104 neuroblastoma cells; assay type: cell-based; details: oxonol as FRET donor to Cy5 labeled PE
Description: as §2, §1

1321N astrocytoma cells = test: Voltage-sensitive FRET fluorescence changes in voltage clamped astrocytoma cells; assay type: cell-based; details: 100 mV depolarization step, FRET from asymmetrically labeled Cou-PE
Description: as §2, §1

neuroblastoma = details: cited from earlier work
[4] = voltage-clamped fibroblasts, 100 mV depolarization at 20 C

CCCCN1C(=O)C(=CC=Cc2c(O)n(CCCC)c(=S)n(CCCC)c2=O)C(=O)N(CCCC)C1=S [DiSBA-C4-(3), Bis-(1,3-dibutyl-2-thiobarbiturate)-trimethineoxonol]
activation energy of translocation (L-M(TK^−) cells [1]; from time constants at 20 C and 29 C): ~17 kcal/mol | displacement current time constant (astrocytoma cells): ~18 ms | time constant of the FRET response [2]: ~5 ms | displacement current time constant (L-M(TK^−) cells [3]; 20 C): ~18 ms | lectin fluorescence intensity quenched (Jurkat cell suspensions): up to 30%

CCCCN1C(=O)C(=CC=CC=Cc2c(O)n(CCCC)c(=S)n(CCCC)c2=O)C(=O)N(CCCC)C1=S [DiSBA-C4-(5)]
translocation rate relative to the trimethine oxonol analogues (astrocytoma cells): six times faster than the corresponding trimethine oxonol | translocation time constant (crosses the membrane) (astrocytoma cells): < 3 ms | displacement current time constant (astrocytoma cells): ~2 ms

CCCCCCN1C(=O)C(=CC=Cc2c(O)n(CCCCCC)c(=S)n(CCCCCC)c2=O)C(=O)N(CCCCCC)C1=S [DiSBA-C6-(3), (1,3-dihexyl-2-thiobarbiturate)trimethine oxonol]
response time (in words) (L-M(TK^−) cells [1]; oxonol as FRET donor to TR-WGA): same response time as FL-WGA/DiSBA-C6-(3) | signal change (in words) (L-M(TK^−) cells [1]; oxonol as FRET donor to TR-WGA): only one half that for FL-WGA/DiSBA-C6-(3) | time constant for the displacement current (L-M(TK^−) cells [3]; 120 mV depolarization, holding potential −70 mV, 20 C): 2 ms | max, time constant for translocation at V=Vh (L-M(TK^−) cells [3]; fit to Eq. 2, FIG. 5, Vh=−5 mV and β=0.42): 2.9 ms | translocation time constant (L-M(TK^−) cells [3]): < 3 ms | displacement current time constant (L-M(TK^−) cells [3]; [4]): about 2 ms | ratio changes (B104 neuroblastoma cells): 5–15 %/100 mV

CCCCCCN1C(=O)C(=CC=CC=Cc2c(O)n(CCCCCC)c(=S)n(CCCCCC)c2=O)C(=O)N(CCCCCC)C1=S [DiSBA-C6-(5), Bis-(1,3-dihexyl-2-thiobarbiturate)-pentamethineoxonol]
response time (astrocytoma cells): less than 1 ms | translocation time constant (crosses the membrane) (astrocytoma cells): ~0.4 ms | time constant for translocation, measured optically (1321N astrocytoma cells): 0.383 ± 0.032 ms

CCCCCCCCCCN1C(=O)C(=CC=Cc2c(O)n(CCCCCCCCCC)c(=S)n(CCCCCCCCCC)c2=O)C(=O)N(CCCCCCCCCC)C1=S [DiSBA-C10-(3)]
displacement currents (in words) (L-M(TK^−) cells [3]; compared with DiSBA-C6-(3), 20 C): approximately the same speed | translocation time constant (L-M(TK^−) cells [3]): < 2 ms | displacement current time constant (L-M(TK^−) cells [3]; [4]): about 2 ms

CCCCCN(CCCCC)c1ccc(/C=C/C=C/c2cc[n+](CCCCS(=O)(=O)[O-])cc2)cc1 [RH-421]
fluorescence change (neuroblastoma): 21 % /100 mV
